Test results: US4406908A, “Tetrazolylcoumarin derivatives and antiallergic compositions containing the same” (Kakenyaku Kako Co., Ltd., priority 1980, dated 1983)

How the values were obtained:
acute toxicity in mice = conditions: mouse, in vivo, po, orally, suspended in 10% gum arabic solution, 6 days observation, method of Litchfield-Wilcoxon
Procedure: With respect to the 3-(1H-tetrazol-5-yl)-coumarin derivatives obtained in Examples 1 to 12, there was tested acute toxicity in mice.
After normal female Slc: ddy mice 4 weeks old were purchased and fed preliminarily in this lavoratory for a week, these mice weighing 25-27 g. were used in the test. The present compounds to be tested, were suspended in a 10% gum arabic solution and administered orally […]. body weight to mice. Each dose level was given to a group of ten animals and the survivors were kept under observation for 6 days. The numbers of dead animals were counted and the LD50 values in mg./kg. body weight were calculated by the method of Litchfield-Wilcoxon.

[1] = system: passive cutaneous anaphylaxis (PCA) mediated by homocytotropic antibodies (HTA); test: antiallergic activity: passive cutaneous anaphylaxis (PCA) mediated by homocytotropic antibodies (HTA) in rats; assay type: in vivo, rat (Wister); conditions: Rattus norvegicus, given orally 30 minutes before antigen challenge, minimum dose that decreased statistically significantly the amount of leaked dye comparing with control, 72 hr. PCA, read-out: MED
Procedure: With respect to the 3-(1H-tetrazol-5-yl)-coumarin derivatives obtained in Examples 1 to 12, there was tested antiallergic activity concerning passive cutaneous anaphylaxis (PCA) mediated by homocytotropic antibodies (HTA) in rats.
2,4-Dinitrophenyl-coupled ascaris extract (DNP-As) used as antigen, was prepared according to the methods of Strejan et al [cf. J. Immunol., Vol. 98, 893(1967)] and Eisen [cf. J. Amer. Chem. Soc., Vol. 75, 4593(1953)]. Antisera containing HTA were prepared in rats according to the method of Tada and Okumura [cf, J. Immunol., Vol. 106, 1002(1971)] as follows:
Wister rats weighing 180 to 200 g. were splenectomized and several days later immunized by injecting into all four footpads a total of 1 mg. of DNP-As mixed with 10^10 Bordetella pertussis. After 5 days, 0.5 mg. of DNP-As alone was injected subcutaneously into the back of rats. Eight days after the first immunization, blood was collected by aortic puncture under ether anaesthesea and antisera obtained by these procedures were pooled and stored at -80° C.
The titer of the pooled autiserum was determined in rats by the 72 hr. PCA which method was described in the following item (ii), i.e. the highest dilution of antiserum producing a diameter of approximately 5 mm. was usually 1:500.
Normal wister rats weighing 140 to 160 g. were sensitized passively by injection intradermal on the shaved back skin 0.05 ml. of the diluted antisera (1:30). After 72 hours, the animals were injected intravenously 1 ml. of physiological salt solution containing 2 mg. DNP-As and 2.5 mg. Evans' blue.
The present compounds to be tested were given orally 30 minutes before antigen challenge. The animals were exsanguinated 30 minutes after challenge with the antigens and the skins were exfoliated. The intensities of PCA were evaluated by measuring the amount of leaked dye. The amount of dye leaked as a result of PCA was extracted according to the method of Harada et al [cf. Jpn.

O=c1oc2c(OCCCO)cccc2cc1-c1nnn[nH]1 [Ex. 1, 8-(3-Hydroxypropoxy)-3-(1H-tetrazol-5-yl)coumarin]
LD50 at 144 h (acute toxicity in mice): > 2000 mg/kg

COCCOc1cccc2cc(-c3nnn[nH]3)c(=O)oc12 [Ex. 2, 8-(3-Oxabutoxy)-3-(1H-tetrazol-5-yl)coumarin]
LD50 at 144 h (acute toxicity in mice): 1500 to 2000 mg/kg | minimal effective dose [1]: 1.56 mg/kg

CCOCCOc1cccc2cc(-c3nnn[nH]3)c(=O)oc12 [Ex. 3, 8-(3-Oxapentyloxy)-3-(1H-tetrazol-5-yl)coumarin]
LD50 at 144 h (acute toxicity in mice): 1500 mg/kg | minimal effective dose [1]: 0.39 mg/kg

CCCOCCOc1cccc2cc(-c3nnn[nH]3)c(=O)oc12 [Ex. 4, 8-(3-Oxahexyloxy)-3-(1H-tetrazol-5-yl)coumarin]
LD50 at 144 h (acute toxicity in mice): 1500 to 2000 mg/kg | minimal effective dose [1]: 1.56 mg/kg

CC(C)OCCOc1cccc2cc(-c3nn[nH]n3)c(=O)oc12 [Ex. 5]
LD50 at 144 h (acute toxicity in mice): 1500 mg/kg | minimal effective dose [1]: 6.25 mg/kg

CCCCOCCOc1cccc2cc(-c3nnn[nH]3)c(=O)oc12 [Ex. 6, 8-(3-Oxaheptyloxy)-3(1H-tetrazol-5-yl)coumarin]
LD50 at 144 h (acute toxicity in mice): > 2000 mg/kg | minimal effective dose [1]: 6.25 mg/kg

CC(C)COCCOc1cccc2cc(-c3nnn[nH]3)c(=O)oc12 [Ex. 7, 8-(5-Methyl-3-oxahexyloxy)-3-(1H-tetrazol-5-yl)coumarin]
LD50 at 144 h (acute toxicity in mice): > 2000 mg/kg | minimal effective dose [1]: 6.25 mg/kg

CCOCCCOc1cccc2cc(-c3nnn[nH]3)c(=O)oc12 [Ex. 8, 8-(4-Oxahexyloxy)-3-(1H-tetrazol-5-yl)coumarin]
LD50 at 144 h (acute toxicity in mice): > 2000 mg/kg | minimal effective dose [1]: 6.25 mg/kg

CCOCCCCOc1cccc2cc(-c3nnn[nH]3)c(=O)oc12 [Ex. 9, 8-(5-Oxaheptyloxy)-3-(1H-tetrazol-5-yl)coumarin]
LD50 at 144 h (acute toxicity in mice): > 2000 mg/kg | minimal effective dose [1]: 0.39 mg/kg

C=CCOCCOc1cccc2cc(-c3nnn[nH]3)c(=O)oc12 [Ex. 10, 8-(3-Oxa-5-hexenyloxy)-3-(1H-tetrazol-5-yl)-coumarin]
LD50 at 144 h (acute toxicity in mice): 1500 to 2000 mg/kg | minimal effective dose [1]: 6.25 mg/kg

CCOCCOCCOc1cccc2cc(-c3nn[nH]n3)c(=O)oc12 [Ex. 11, 8-(3,6-Dioxaoctyloxy)-3-(1-H-tetrazol-5-yl)-coumarin]
LD50 at 144 h (acute toxicity in mice): > 2000 mg/kg | minimal effective dose [1]: 1.56 mg/kg

O=c1oc2c(OCCOc3ccccc3)cccc2cc1-c1nnn[nH]1 [Ex. 12, 8-(2-Phenoxyethyloxy)-3-(1H-tetrazol-5-yl)-coumarin]
LD50 at 144 h (acute toxicity in mice): > 2000 mg/kg | minimal effective dose [1]: 1.56 mg/kg
